# Laboratory results from US20250212891A1, “MIXTURES AND COMPOSITIONS COMPRISING PAENIBACILLUS STRAINS OR FUSARICIDINS AND CHEMICAL PESTICIDES” (BASF SE, priority 2016, published 2025).
# Where two headings read alike, the source gives them in different places. Positions of bridges follow the written chain, without caps; N, C: chain ends. Non-standard residues stand in square brackets, D forms with d. Residues, ends and D or L forms follow the SMILES beside them. ξ: configuration not given here. *: point of attachment. Pentadecanoyl(3ξ-OH,15-Gua) = N=C(N)NCCCCCCCCCCCCC(O)CC(=O)*; d(aThr) = C[C@@H](O)[C@@H](N)C(=O)O; Thr(3ξ) = CC(O)[C@H](N)C(=O)O; ξY = NC(Cc1ccc(O)cc1)C(=O)O
# How the values were obtained:
# [1] = tested on: Alternaria solani; assay: Microtiterplate test against early blight (Alteso); assay type: cell-based
# [2] = tested on: Botrytis cinerea; assay: Microtiterplate test against grey mold (Botrci); assay type: cell-based
# [3] = tested on: Pyricularia oryzae; assay type: cell-based; conditions: Pyrior, single active, 7 days after inoculation
# [4] = tested on: Leptosphaeria nodorum; assay: Microtiterplate test against wheat leaf spots (Leptno); assay type: cell-based
# [5] = tested on: Septoria tritici; assay: Microtiterplate test against leaf blotch on wheat (Septtr); assay type: cell-based
# [6] = tested on: Septoria tritici (SEPTTR); assay type: in vivo; conditions: protective application, 360 ppm
# [7] = tested on: Botrytis cinerea (BOTRCI); assay: Fungal growth assay in 96 well plates; assay type: cell-based; conditions: evaluation 7 days after inoculation, OD 600 nm, about 18° C., read-out: Fungal growth inhibition (IC50 [μM]) BOTRCI (7 d)
# [8] = tested on: Phytophthora infestans (PHYTIN); assay type: in vivo; conditions: protective application, 7.2 ppm
# [9] = tested on: Alternaria solani (ALTESO); assay: Fungal growth assay in 96 well plates; assay type: cell-based
# [10] = tested on: Fusarium graminearum (GIBBZE); assay type: in vivo; conditions: protective application, 360 ppm
# [11] = tested on: Botrytis cinerea (BOTRCI); assay: Glasshouse test, grey mold on pepper, protective application; assay type: in vivo; conditions: in planta
# [12] = tested on: Phakopsora pachyrhizi (PHAKPA); assay: Glasshouse test, soybean rust on soybean, protective application; assay type: in vivo; conditions: in planta, 360 ppm
# [13] = tested on: Alternaria solani (ALTESO); assay: Glasshouse test, early blight on tomato, protective application; assay type: in vivo; conditions: in planta, 36 ppm
# [14] = tested on: clinically relevant fungi and gram-positive bacteria such a Staphylococcus aureus; conditions: ChemMedChem 7, 871-882, 2012; cited from earlier work
# [15] = Botrytis cinerea, 168 h, read-out: Observed efficacy
# [16] = Botrytis cinerea, 168 h, 0.016 ppm, read-out: Observed efficacy
# [17] = evaluation 3 days after inoculation, OD 600 nm, about 18° C., read-out: Fungal growth inhibition (IC50 [μM]) ALTESO (3 d)
# [18] = evaluation 7 days after inoculation, OD 600 nm, about 18° C., read-out: Fungal growth inhibition (IC50 [μM]) ALTESO (7 d)
# [19] = Botrytis cinerea, 168 h, 0.063 ppm, read-out: Observed efficacy
# [20] = Botrytis cinerea, 168 h, 1 ppm, read-out: Observed efficacy
# [21] = Alternaria solani, 72 h, evaluation 3 days after inoculation, OD 600 nm, about 18° C., read-out: Fungal growth inhibition (IC50 [μM]) ALTESO (3 d)
# [22] = Alternaria solani, 168 h, evaluation 7 days after inoculation, OD 600 nm, about 18° C., read-out: Fungal growth inhibition (IC50 [μM]) ALTESO (7 d)
# [23] = Alternaria solani, summary over ALTESO and BOTRCI of Tab. 18, read-out: IC50 values (antifungal efficacy, Tab. 18)
compound,measurement,setting,value
CC1COC(Cn2cncn2)(c2ccc(Oc3ccc(Cl)cc3)cc2Cl)O1 (centres unmarked) [Difenoconazol],Observed efficacy,[1]; 0.25 ppm,67%
COCC(=O)N(c1c(C)cccc1C)[C@H](C)C(=O)OC [Mefenoxam],Observed efficacy,[1]; 1 ppm,18%
same,Observed efficacy,[2]; 0.063 ppm,5%
"CC1(C)CCC(=Cc2ccc(Cl)cc2)C1(O)Cn1cncn1 (centres unmarked) [Triticonazol, triticonazole, reference compound]",Observed efficacy,[3]; 4 ppm,39%
same,inhibition of growth at 0.25 ppm,[2]; [15],19%
"COC(=O)N(OC)c1ccccc1COc1ccn(-c2ccc(Cl)cc2)n1 [Pyraclostrobin, pyraclostrobin, reference compound]",Observed efficacy,[4]; 0.001 ppm,3%
same,Observed efficacy,[4]; 0.016 ppm,11%
same,Observed efficacy,[3]; 0.001 ppm,28%
same,Observed efficacy,[3]; 0.004 ppm,44%
same,Observed efficacy,[5]; 0.004 ppm,12%
same,inhibition of growth at 0.001 ppm,"[2]; Botrytis cinerea, 168 h, 0.001 ppm, read-out: Observed efficacy",4%
same,inhibition of growth at 0.016 ppm,[2]; [16],5%
same,inhibition of growth at 0.25 ppm,[2]; [15],10%
"CC(O)(Cn1cncn1)c1ccc(Oc2ccc(Cl)cc2)cc1C(F)(F)F (centres unmarked) [Mefentrifluconazol, 2-[4-(4-chlorophenoxy)-2-(trifluoromethyl)phenyl]-1-(1H-1,2,4-triazol-1-yl) propan-2-ol, reference compound]",Observed efficacy,[4]; 0.001 ppm,0%
same,Observed efficacy,[4]; 0.016 ppm,29%
same,Observed efficacy,[1]; 0.016 ppm,12%
same,Observed efficacy,[5]; 0.001 ppm,21%
same,inhibition of growth at 0.016 ppm,[2]; [16],5%
CNC(=O)/C(=N/OC)c1ccccc1COc1cc(C)ccc1C [Dimoxystrobin],Observed efficacy,[1]; 0.063 ppm,36%
same,Observed efficacy,[5]; 0.063 ppm,73%
same,Observed efficacy,[2]; 0.063 ppm,0%
same,Observed efficacy,[2]; 1 ppm,23%
"CC1OC(=O)[C@@H](C)NC(=O)[C@@H](CCC(N)=O)NC(=O)[C@@H]([C@H](C)O)NC(=O)C(Cc2ccc(O)cc2)NC(=O)[C@@H](C(C)C)NC(=O)[C@H]1NC(=O)CC(O)CCCCCCCCCCCCN=C(N)N (some centres unmarked) [Fusaricidin D, fusaricidin D] ({Pentadecanoyl(3ξ-OH,15-Gua)}-[Thr(3ξ)][dV][ξY][dT][dQ][dA]; ester 1-C)","% efficacy (% fungal attack), head blight on wheat caused by Septoria tritici",[6],50%
same,IC50,[7],0.5 µM
same,"% efficacy (% fungal attack), late blight on tomato caused by Phytophthora infestans",[8],0%
same,IC50,[9]; [17],1.1 µM
same,IC50,[9]; [18],0.6 µM
Cc1cc(C)nc(Nc2ccccc2)n1 [Pyrimethanil],Observed efficacy,[4]; 0.063 ppm,1%
same,inhibition of growth at 0.063 ppm,[2]; [19],11%
same,inhibition of growth at 4 ppm,"[2]; Botrytis cinerea, 168 h, 4 ppm, read-out: Observed efficacy",45%
"Cn1cc(C(=O)Nc2cccc3c2[C@@H]2CC[C@H]3C2=C(Cl)Cl)c(C(F)F)n1 (racemic) [Benzovindiflupyr, benzovindiflupyr, reference compound]",Observed efficacy,[4]; 0.25 ppm,26%
same,Observed efficacy,[3]; 0.016 ppm,72%
same,Observed efficacy,[1]; 0.016 ppm,12%
same,Observed efficacy,[5]; 0.25 ppm,77%
same,Observed efficacy,[2]; 0.063 ppm,17%
"CC(C)[C@@H]1NC(=O)[C@@H](C(C)C)NC(=O)[C@@H](NC(=O)CC(O)CCCCCCCCCCCCN=C(N)N)C(C)OC(=O)[C@@H](C)NC(=O)[C@@H](CCC(N)=O)NC(=O)[C@@H]([C@H](C)O)NC1=O (stereo in doubt) [Fusaricidin B, fusaricidin B]","% efficacy (% fungal attack), head blight on wheat caused by Fusarium graminearum",[10],0%
same,IC50,[7],0.6 µM
same,"% efficacy (% fungal attack), late blight on tomato caused by Phytophthora infestans",[8],4%
same,IC50,[9]; [17],1.1 µM
same,IC50,[9]; [18],0.6 µM
N#Cc1c[nH]cc1-c1cccc2c1OC(F)(F)O2 [Fludioxonil],inhibition of growth at 0.004 ppm,[2]; [15],12%
"CCC(C)C1NC(=O)C(NC(=O)CC(O)CCCCCCCCCCCCNC(=N)N)C(C)OC(=O)C(C)NC(=O)C(CCC(N)=O)NC(=O)C(C(C)O)NC(=O)C(Cc2ccc(O)cc2)NC1=O (centres unmarked) [Compound 1B, fusaricidin 1B] ({Pentadecanoyl(3ξ-OH,15-Gua)}-TIYTQA; ester 1-C; configuration not given here)",Observed efficacy,[4]; 0.25 ppm,0%
same,Observed efficacy,[4]; 1 ppm,14%
same,IC50,"[7]; Botrytis cinerea, 168 h",0.4 µM
same,% efficacy (% fungal attack) BOTRCI,[11]; 36 ppm,97%
same,% efficacy (% fungal attack) BOTRCI,[11]; 360 ppm,100%
same,% efficacy (% fungal attack) PHAKPA,[12],97%
same,Observed efficacy,[3]; 0.016 ppm,2%
same,Observed efficacy,[3]; 0.063 ppm,3%
same,Observed efficacy,[3]; 0.25 ppm,3%
same,Observed efficacy,[3]; 1 ppm,12%
same,Observed efficacy,[1]; 0.063 ppm,13%
same,Observed efficacy,[1]; 0.25 ppm,14%
same,Observed efficacy,[1]; 1 ppm,59%
same,Observed efficacy,[5]; 0.016 ppm,20%
same,Observed efficacy,[5]; 0.063 ppm,22%
same,Observed efficacy,[5]; 0.25 ppm,20%
same,inhibition of growth at 0.25 ppm,[2]; [15],4%
same,inhibition of growth at 1 ppm,[2]; [20],50%
same,IC50,[9]; [21],0.6 µM
same,IC50,[9]; [22],0.4 µM
same,IC50,[9]; [23],0.4 to 0.6 µM
"CCC(C)C1NC(=O)C(NC(=O)CC(O)CCCCCCCCCCCCNC(=N)N)C(C)OC(=O)C(C)NC(=O)C(CC(N)=O)NC(=O)C(C(C)O)NC(=O)C(Cc2ccc(O)cc2)NC1=O (centres unmarked) [Compound 1A, fusaricidin 1A] ({Pentadecanoyl(3ξ-OH,15-Gua)}-TIYTNA; ester 1-C; configuration not given here)",Observed efficacy,[4]; 1 ppm,19%
same,IC50,"[7]; Botrytis cinerea, 168 h",0.3 µM
same,% efficacy (% fungal attack) BOTRCI,[11]; 36 ppm,97%
same,% efficacy (% fungal attack) BOTRCI,[11]; 360 ppm,99%
same,% efficacy (% fungal attack) ALTESO,[13],74%
same,% efficacy (% fungal attack) PHAKPA,[12],95%
same,Observed efficacy,[3]; 0.004 ppm,3%
same,Observed efficacy,[3]; 1 ppm,7%
same,Observed efficacy,[1]; 0.016 ppm,1%
same,Observed efficacy,[1]; 0.063 ppm,7%
same,Observed efficacy,[1]; 0.25 ppm,10%
same,Observed efficacy,[1]; 1 ppm,58%
same,Observed efficacy,[5]; 0.016 ppm,9%
same,Observed efficacy,[5]; 0.063 ppm,8%
same,Observed efficacy,[5]; 0.25 ppm,12%
same,inhibition of growth at 1 ppm,[2]; [20],40%
same,IC50,[9]; [21],0.6 µM
same,IC50,[9]; [22],0.5 µM
same,IC50,[9]; [23],0.4 to 0.6 µM
O=C(NCCc1ncc(C(F)(F)F)cc1Cl)c1ccccc1C(F)(F)F [Fluopyram],Observed efficacy,[5]; 0.25 ppm,12%
same,Observed efficacy,[5]; 1 ppm,32%
"OC(Cc1ccccc1Cl)(Cn1nc[nH]c1=S)C1(Cl)CC1 (centres unmarked) [Prothioconazol, prothioconazole, reference compound]",Observed efficacy,[3]; 0.25 ppm,25%
same,Observed efficacy,[5]; 0.063 ppm,10%
"CC1(C)CCC(Cc2ccc(Cl)cc2)C1(O)Cn1cncn1 (centres unmarked) [Metconazol, metconazole, reference compound]",Observed efficacy,[4]; 0.016 ppm,3%
same,Observed efficacy,[4]; 0.063 ppm,27%
same,Observed efficacy,[3]; 0.25 ppm,23%
same,Observed efficacy,[1]; 0.063 ppm,45%
same,Observed efficacy,[5]; 0.016 ppm,25%
same,inhibition of growth at 0.004 ppm,"[2]; Botrytis cinerea, 168 h, 0.004 ppm, read-out: Observed efficacy",1%
same,inhibition of growth at 0.016 ppm,[2]; [16],9%
same,inhibition of growth at 0.063 ppm,[2]; [19],29%
prohexadione-calcium [Prohexadion-ca],Observed efficacy,[3]; 4 ppm,4%
Cn1cc(C(=O)Nc2ccccc2-c2cc(F)c(F)c(F)c2)c(C(F)F)n1 [Fluxapyroxad],Observed efficacy,[2]; 0.016 ppm,1%
"CC(C)[C@@H]1NC(=O)[C@@H](C(C)C)NC(=O)[C@@H](NC(=O)CC(O)CCCCCCCCCCCCN=C(N)N)[C@@H](C)OC(=O)[C@@H](C)NC(=O)[C@@H](CC(N)=O)NC(=O)[C@@H]([C@@H](C)O)NC1=O (some centres unmarked) [Fusaricidin A, fusaricidin A] ({Pentadecanoyl(3ξ-OH,15-Gua)}-T[dV]V[d(aThr)][dN][dA]; ester 1-C)",MIC value range,[14],0.78 to 3.12 µg/mL
same,"% efficacy (% fungal attack), head blight on wheat caused by Fusarium graminearum",[10],31%
same,IC50,[7],0.5 µM
same,"% efficacy (% fungal attack), late blight on tomato caused by Phytophthora infestans",[8],15%
same,IC50,[9]; [17],1.3 µM
same,IC50,[9]; [18],0.7 µM
CO/C=C(/C(=O)OC)c1ccccc1Oc1cc(Oc2ccccc2C#N)ncn1 [Azoxystrobin],Observed efficacy,[4]; 0.25 ppm,59%
same,Observed efficacy,[1]; 0.016 ppm,43%
same,Observed efficacy,[5]; 0.063 ppm,60%
COCC(=O)N(c1c(C)cccc1C)C(C)C(=O)OC (centres unmarked) [Metalaxyl],Observed efficacy,[4]; 0.063 ppm,0%
same,Observed efficacy,[1]; 16 ppm,10%
same,inhibition of growth at 0.25 ppm,[2]; [15],0%
